US20160339089A1, “IMMUNOGENIC/THERAPEUTIC GLYCOCONJUGATE COMPOSITIONS AND USES THEREOF” (OBI PHARMA, INC., priority 2014, published 2016)

Columns and labels:
Format in all cases: in vivo
[1] = test system: B cells and T cells (CD3T, CD4T, CD8T) in PBMC; assay: Analysis of immune effector cell subpopulations in PBMC of immunized rats by flow cytometry; conditions: Lewis rats, s.c. immunization day 0, 7, 14, 21 with saponin adjuvant
Method: (§1) Different samples of the glycoconjugates (Globo H-KLH) as prepared in Example 1 were stored at 4° C., and mixed with a saponin adjuvant under a laminar flow hood. The resultant vaccine compositions were placed on ice and transported to animal facility for subsequent immunization.
(§2) The rats were immunized on day 0, 7, 14, and 21. Peripheral blood mononuclear cells (PBMC) and plasma were collected on day 0, 3, 10, 17, 24, and 31. Spleen, lymph node, and peritoneal wash were harvested on day 31.
The peripheral blood mononuclear cells (PBMCs) were isolated from the animals and then various immune effector cell subpopulations in the PBMC were identified by flow cytometry using specific antibodies against different cell markers The PBMCs, isolated from the immunized rats on day 0, 3, 10, 17, 24, and 31, were stained with different fluorescence (FITC)-conjugated antibodies and placed on ice for 30 minutes.

[2] = test system: Globo H-specific IgG and IgM antibodies; assay: Globo H-specific antibody test by ELISA in plasma of immunized rats; conditions: Lewis rats, after immunization
Method: as §1, §2
The production of Globo H-specific antibodies in the plasma from the immunized rats was determined by ELISA assay. […] There was no response of Globo H-specific IgG and IgM antibody in rats treated with PBS only.

[3] = test system: Globo H-specific IgM antibody; assay: Immunization in mice with different Globo H:KLH ratios and antibody test by ELISA; conditions: Balb/c mice, s.c. day 0, 7, 14, 21, with saponin adjuvant, sera, compared with PBS control or between weight ratios
Method: Different samples of the glycoconjugates (Globo H-KLH) were stored at 4° C., and mixed with a saponin adjuvant under a laminar flow hood. The resultant vaccine compositions were placed on ice and transported to animal facility for subsequent immunization.
Balb/c mice of approximately eight weeks old were given Globo H-KLH glycoconjugate with different carbohydrate-to-protein (Globo H: KLH) ratios once every week for four weeks (Day 0, 7, 14, and 21) via subcutaneous injection. Blood samples were collected through retro-orbital or facial vein without anticoagulant pre-immune or Day 0, and three days after each vaccination (Day 10, 17 and 24). Samples were then centrifuged to separate sera and red cells. Sera were collected and stored at −20° C., which were later analyzed by ELISA. Mann-Whitney t-test was used for statistical analysis.

Fucα(1→2) Galβ(1→3) GalNAcβ(1→3) Galα(1→4) Galβ(1→4) Gluβ(1-O-ethylhydrazyl-1-carbonyl-cyclohexyl-4-(methyl-N-maleimido)-3-(thiobutyl-imidyl)-Keyhole Limpet Hemocyanin (KLH) [OBI-822]
day at which CD3T, CD4T and CD8T cells appeared [1]: 24 days | day at which the B cell population first appeared [1]: 3 days | expansion of B cells and T cells compared to the PBS control group ([1]; flow cytometry): significantly expanded | time at which titers of Globo H-specific IgG began to rise [2]: 10 days | time at which titers of Globo H-specific IgG peaked [2]: 17 days | Globo H-specific IgM antibody responses [3]: significantly induce
